According to publication PMC9191221 (Iranian Journal of Pharmaceutical Research : IJPR, 2022):
Where “and” joins values, the source holds several entries; their conditions need not be identical. Equal entries are not always repeated.

Target: EGFR^T790M (Homo sapiens, UniProt P00533, T790M)
Experiment: EGFR-TK assay kit / ADP-Glo kinase assay
Format: biochemical
Details: tested in triplicate

Chain of EGFR^T790M (P00533 25-1210 T790M): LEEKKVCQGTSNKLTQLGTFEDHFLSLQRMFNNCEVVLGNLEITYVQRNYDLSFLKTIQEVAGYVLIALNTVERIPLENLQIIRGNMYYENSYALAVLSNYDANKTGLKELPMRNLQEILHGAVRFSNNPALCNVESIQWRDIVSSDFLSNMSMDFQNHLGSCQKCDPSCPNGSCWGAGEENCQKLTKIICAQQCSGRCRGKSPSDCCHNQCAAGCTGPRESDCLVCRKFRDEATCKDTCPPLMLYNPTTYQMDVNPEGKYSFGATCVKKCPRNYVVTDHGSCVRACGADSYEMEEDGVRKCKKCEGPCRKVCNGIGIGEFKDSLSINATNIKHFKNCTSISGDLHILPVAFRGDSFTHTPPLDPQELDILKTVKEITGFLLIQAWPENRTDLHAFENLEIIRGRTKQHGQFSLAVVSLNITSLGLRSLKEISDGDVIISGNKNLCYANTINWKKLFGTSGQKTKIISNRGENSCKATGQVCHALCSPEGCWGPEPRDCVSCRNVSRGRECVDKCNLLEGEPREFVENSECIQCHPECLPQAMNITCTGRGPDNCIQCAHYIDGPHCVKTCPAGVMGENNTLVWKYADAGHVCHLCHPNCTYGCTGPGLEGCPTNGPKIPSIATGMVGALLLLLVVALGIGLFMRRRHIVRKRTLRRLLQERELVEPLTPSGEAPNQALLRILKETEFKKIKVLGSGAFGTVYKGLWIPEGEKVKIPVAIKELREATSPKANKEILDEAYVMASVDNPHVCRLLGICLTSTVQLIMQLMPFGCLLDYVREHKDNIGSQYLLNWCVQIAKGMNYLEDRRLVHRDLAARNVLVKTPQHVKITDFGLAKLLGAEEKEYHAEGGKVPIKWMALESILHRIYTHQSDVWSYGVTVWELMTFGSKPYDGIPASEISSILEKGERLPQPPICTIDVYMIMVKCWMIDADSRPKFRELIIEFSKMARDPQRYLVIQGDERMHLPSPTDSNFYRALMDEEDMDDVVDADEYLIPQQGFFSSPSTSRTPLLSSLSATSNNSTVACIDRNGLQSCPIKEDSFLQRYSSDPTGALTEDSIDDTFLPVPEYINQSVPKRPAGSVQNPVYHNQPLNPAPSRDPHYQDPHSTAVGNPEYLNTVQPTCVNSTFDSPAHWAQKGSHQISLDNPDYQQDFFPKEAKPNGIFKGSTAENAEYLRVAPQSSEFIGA

IC50: 370 pM and 1370 pM
SMILES: O=c1nc(NCc2ccccc2Cl)[nH]c2ccc(Oc3ccccc3)cc12 [Compound 8b, 2-((2-Chlorobenzyl)amino)-6-phenoxyquinazolin-4(1H)-one]
